Assay: Geller Seifter Procedure
Assay type: in vivo
Conditions: dose range 0.5-10 mg/kg p.o.; procedure of WO 94/04533
Protocol: The compound of example 2 was tested following the procedure outlined in WO 94/04533.

Cc1cc2c(cc1Cl)N(C(=O)Nc1cccnc1)CC2 [Example 2, 6-Chloro-5-methyl-1-(3-pyridycarbamoyl)indoline]
punished responding: significant increase in punished responding

Source: patent publication US5834494A, “Pyridylcarbamoyl Indolines” (SmithKline Beecham p.l.c., priority 1993, dated 1998)
